Read-outs that look alike come from different tables or passages of the source.
Assays:
WNK2 = biological target: T1, WNK2 (Homo sapiens, UniProt Q9Y3S1); experiment: KINOMEScan; format: binding; settings: WNK2, 1 µM; read-out: Percent Control
T1 construct: purchased Eurofins DiscoverX
Description: (§4) Percent control was mapped onto the kinome tree using TREEspot.

YANK3 = biological target: T2, YANK3 (Homo sapiens, UniProt Q86UX6); experiment: KINOMEScan; format: binding; settings: YANK3, 1 µM; read-out: Percent Control
T2 construct: purchased Eurofins DiscoverX (KINOMEScan service)

BMPR1A = biological target: T3, BMPR1A (Homo sapiens, UniProt P36894); experiment: KINOMEScan; format: binding; settings: read-out: Percent Control
T3 construct: purchased Eurofins DiscoverX (KINOMEscan)
Description: as §4

[1] = biological target: T4, ABL1(F317I)-phosphorylated (Homo sapiens, UniProt P00519, F317I); experiment: KINOMEScan; format: binding; settings: read-out: Percent Control
T4 construct: purchased Eurofins DiscoverX
Description: as §4

[2] = system: NCI-H1975 (EGFR mutation = L858R/T790M); experiment: CellTiter-Glo cell viability assay; format: cell-based, human; settings: Homo sapiens, NCI-H1975; 72 h, unadjusted for FBS
Description: (§1) The A431, HCC827, SK-BR-3, ZR-75–30, AU565, and Caco-2 cell lines were obtained from ATCC. The NCI-H1975 cell line was obtained from SIBS. The NCI-H3255 cell line was obtained from CoBioer. Engineered Ba/F3 cell lines were obtained from Crown Bioscience. MCKII-MDR1 cells were obtained from The Netherlands Cancer Institute. HEK293 cells were obtained from Invitrogen. A431 cells were cultured in DMEM (Life Technologies) with 10% FBS. HCC827, NCI-H1975, and AU565 cells were cultured in RPMI1640 (Invitrogen) with 10% FBS. NCI-H3255 cells were cultured in BEGM (Lonza) with 10% FBS. Ba/F3 EGFR-del E746_A750/C797S and Ba/F3 EGFR-L858R/C797S cells were cultured in RPMI (Invitrogen) with 10% FBS. SK-BR-3 cells were cultured in McCoy’s 5a (Invitrogen) with 10% FBS. ZR-75-30 cells were cultured in RPMI1640 (Invitrogen) with 20% FBS. Caco-2 and MCKII-MDR1 culture information is given in the Permeability Studies section. HEK293 cells were cultured in DMEM (Gibco) with 10% FBS, 0.1 mM NEAA, 25 mM HEPES, 100 U/mL penicillin-streptomycin, μg/mL blasticidin, and 400 μg/mL Geneticin. All cells were cultured in a humidified incubator with 5% CO2 at 37 °C.
(§2) Viability assays using A431, HCC827, NCI-H1975, NCI-H3255, Ba/F3 EGFR-del E746_A750/C797S, Ba/F3 EGFR-L858R/C797S, AU565, SK-BR-3, and ZR-75-30 cells were performed at Crown BioScience. Cells were plated into 96-well plates at 1500–7000 cells per well and dosed in triplicate (n = 3) in a nine-point, 4-fold dilution series with compounds (0.15 nM to 10 μM) in DMSO and incubated for 72 h. After 72 h, cell viability was assayed by CellTiter-Glo Luminescent Viability Assay (Promega). Dose–response curves were generated and used to calculate the IC50 values which were calculated on GraphPad Prism from the nonlinear regression equation fitted with a sigmoidal dose response and are presented as mean ± SEM.

[3] = system: A431 cell line (overexpressed EGFRwt); experiment: CellTiter-Glo cell viability assay; format: cell-based, human; settings: Homo sapiens, A-431; 72 h, unadjusted for FBS
Description: as §1, §2

[4] = system: SK-BR-3 (HER2-positive breast cancer); experiment: CellTiter-Glo cell viability assay; format: cell-based, human; settings: Homo sapiens, SK-BR-3; 72 h, unadjusted for FBS
Description: as §1, §2

[5] = system: AU565 (HER2-positive breast cancer); experiment: CellTiter-Glo cell viability assay; format: cell-based, human; settings: Homo sapiens, AU565; 72 h, unadjusted for FBS
Description: as §1, §2

[6] = system: ZR-75-30 (HER2-positive breast cancer); experiment: CellTiter-Glo cell viability assay; format: cell-based, human; settings: Homo sapiens, ZR-75-30; 72 h, unadjusted for FBS
Description: as §1, §2

TA100 = system: TA100; parameters: species or system Salmonella;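 as to Count (# of wells): Revertant-positive wells among 48 replicate wells per concentration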
Description: (§3) Compounds were assessed for mutagenicity at the Eurofins Panlabs in 384-well plates using four Salmonella strains: TA98, to probe for frameshift mutation (with quercetin as control), TA100 and TA1535, to probe for base pair insertions/deletions (with streptozotocin as control), and TA1537, to probe for frameshift mutations (with aminacridine as control) as previously described.[78] […] A concurrent bacterial cytotoxicity assay was run at 0.6, 1.2, 2.5, 5, 10, 25, 50, and 100 μM to rule out false negatives. Bacterial cytotoxicity was expressed as percent of control growth (OD650). Compounds with growth of less than 60% control were flagged and considered bacterial cytotoxic. […] Significances of the positive counts between the treatment and control were determined using a one-tailed Fisher’s exact test.

TA98 = system: TA98; parameters: species or system Salmonella;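 as to Count (# of wells): Revertant-positive wells among 48 replicate wells per concentration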
Description: as §3

TA1537 = system: TA1537; parameters: species or system Salmonella;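 as to Count (# of wells): Revertant-positive wells among 48 replicate wells per concentration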
Description: as §3

T1 sequence (Q9Y3S1 whole entry): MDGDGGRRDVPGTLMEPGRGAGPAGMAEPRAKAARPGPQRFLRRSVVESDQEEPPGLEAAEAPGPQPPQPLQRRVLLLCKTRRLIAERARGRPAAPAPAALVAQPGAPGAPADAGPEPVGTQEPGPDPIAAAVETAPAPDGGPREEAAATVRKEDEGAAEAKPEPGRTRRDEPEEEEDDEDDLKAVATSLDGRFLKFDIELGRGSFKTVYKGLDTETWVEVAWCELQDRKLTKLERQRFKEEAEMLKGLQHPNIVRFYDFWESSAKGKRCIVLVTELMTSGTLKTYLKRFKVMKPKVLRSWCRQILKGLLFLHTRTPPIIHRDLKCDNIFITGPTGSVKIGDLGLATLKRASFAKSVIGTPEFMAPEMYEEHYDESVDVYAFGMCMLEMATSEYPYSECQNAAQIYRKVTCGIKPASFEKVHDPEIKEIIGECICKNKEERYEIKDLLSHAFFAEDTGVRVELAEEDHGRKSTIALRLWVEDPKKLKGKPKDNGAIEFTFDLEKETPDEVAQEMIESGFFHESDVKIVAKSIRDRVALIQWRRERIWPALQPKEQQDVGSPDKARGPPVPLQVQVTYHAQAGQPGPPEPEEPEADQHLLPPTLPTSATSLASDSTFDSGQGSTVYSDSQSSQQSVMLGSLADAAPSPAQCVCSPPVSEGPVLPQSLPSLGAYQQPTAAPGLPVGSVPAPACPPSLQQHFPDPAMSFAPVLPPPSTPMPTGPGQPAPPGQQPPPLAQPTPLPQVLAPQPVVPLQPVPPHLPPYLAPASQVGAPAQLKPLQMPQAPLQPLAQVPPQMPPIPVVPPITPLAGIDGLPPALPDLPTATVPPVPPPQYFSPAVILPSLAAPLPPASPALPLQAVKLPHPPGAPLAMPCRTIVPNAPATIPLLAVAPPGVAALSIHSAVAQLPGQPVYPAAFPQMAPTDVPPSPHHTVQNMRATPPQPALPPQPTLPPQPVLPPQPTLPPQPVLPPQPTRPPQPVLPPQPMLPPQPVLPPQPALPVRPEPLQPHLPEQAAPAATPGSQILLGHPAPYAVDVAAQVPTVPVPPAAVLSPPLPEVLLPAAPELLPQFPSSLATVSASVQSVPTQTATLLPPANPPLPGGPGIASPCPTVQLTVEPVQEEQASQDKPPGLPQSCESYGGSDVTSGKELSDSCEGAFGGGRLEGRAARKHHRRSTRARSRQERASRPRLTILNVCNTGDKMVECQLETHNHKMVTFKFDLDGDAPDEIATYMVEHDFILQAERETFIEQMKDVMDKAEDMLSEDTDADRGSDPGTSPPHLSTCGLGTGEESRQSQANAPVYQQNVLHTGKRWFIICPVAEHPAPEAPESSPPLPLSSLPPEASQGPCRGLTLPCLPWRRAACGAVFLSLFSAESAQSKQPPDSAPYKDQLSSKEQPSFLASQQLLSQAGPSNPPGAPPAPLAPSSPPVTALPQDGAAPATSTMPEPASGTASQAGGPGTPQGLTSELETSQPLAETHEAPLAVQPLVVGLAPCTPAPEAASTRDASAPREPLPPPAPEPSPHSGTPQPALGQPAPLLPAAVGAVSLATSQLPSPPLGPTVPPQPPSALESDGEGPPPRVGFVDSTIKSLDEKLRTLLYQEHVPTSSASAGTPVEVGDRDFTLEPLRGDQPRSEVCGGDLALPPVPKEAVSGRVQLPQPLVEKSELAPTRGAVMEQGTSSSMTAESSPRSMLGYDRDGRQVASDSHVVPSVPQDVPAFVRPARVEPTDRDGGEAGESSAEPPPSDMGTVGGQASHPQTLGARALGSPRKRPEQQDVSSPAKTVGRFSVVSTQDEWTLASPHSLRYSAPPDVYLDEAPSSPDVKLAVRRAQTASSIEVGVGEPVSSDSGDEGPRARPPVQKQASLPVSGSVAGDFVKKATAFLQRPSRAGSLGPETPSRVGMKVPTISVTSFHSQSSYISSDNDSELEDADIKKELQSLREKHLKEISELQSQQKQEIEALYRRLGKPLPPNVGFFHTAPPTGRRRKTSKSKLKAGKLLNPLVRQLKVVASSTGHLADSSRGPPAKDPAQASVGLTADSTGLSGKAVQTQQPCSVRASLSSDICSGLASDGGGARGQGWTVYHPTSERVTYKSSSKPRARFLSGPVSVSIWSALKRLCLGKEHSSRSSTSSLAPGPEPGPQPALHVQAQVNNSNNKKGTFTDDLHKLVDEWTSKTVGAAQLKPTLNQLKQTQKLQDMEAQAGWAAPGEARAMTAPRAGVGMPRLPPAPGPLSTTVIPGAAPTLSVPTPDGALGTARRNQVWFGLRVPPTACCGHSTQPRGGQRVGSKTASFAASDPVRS
T4 sequence (P00519 whole entry F317I): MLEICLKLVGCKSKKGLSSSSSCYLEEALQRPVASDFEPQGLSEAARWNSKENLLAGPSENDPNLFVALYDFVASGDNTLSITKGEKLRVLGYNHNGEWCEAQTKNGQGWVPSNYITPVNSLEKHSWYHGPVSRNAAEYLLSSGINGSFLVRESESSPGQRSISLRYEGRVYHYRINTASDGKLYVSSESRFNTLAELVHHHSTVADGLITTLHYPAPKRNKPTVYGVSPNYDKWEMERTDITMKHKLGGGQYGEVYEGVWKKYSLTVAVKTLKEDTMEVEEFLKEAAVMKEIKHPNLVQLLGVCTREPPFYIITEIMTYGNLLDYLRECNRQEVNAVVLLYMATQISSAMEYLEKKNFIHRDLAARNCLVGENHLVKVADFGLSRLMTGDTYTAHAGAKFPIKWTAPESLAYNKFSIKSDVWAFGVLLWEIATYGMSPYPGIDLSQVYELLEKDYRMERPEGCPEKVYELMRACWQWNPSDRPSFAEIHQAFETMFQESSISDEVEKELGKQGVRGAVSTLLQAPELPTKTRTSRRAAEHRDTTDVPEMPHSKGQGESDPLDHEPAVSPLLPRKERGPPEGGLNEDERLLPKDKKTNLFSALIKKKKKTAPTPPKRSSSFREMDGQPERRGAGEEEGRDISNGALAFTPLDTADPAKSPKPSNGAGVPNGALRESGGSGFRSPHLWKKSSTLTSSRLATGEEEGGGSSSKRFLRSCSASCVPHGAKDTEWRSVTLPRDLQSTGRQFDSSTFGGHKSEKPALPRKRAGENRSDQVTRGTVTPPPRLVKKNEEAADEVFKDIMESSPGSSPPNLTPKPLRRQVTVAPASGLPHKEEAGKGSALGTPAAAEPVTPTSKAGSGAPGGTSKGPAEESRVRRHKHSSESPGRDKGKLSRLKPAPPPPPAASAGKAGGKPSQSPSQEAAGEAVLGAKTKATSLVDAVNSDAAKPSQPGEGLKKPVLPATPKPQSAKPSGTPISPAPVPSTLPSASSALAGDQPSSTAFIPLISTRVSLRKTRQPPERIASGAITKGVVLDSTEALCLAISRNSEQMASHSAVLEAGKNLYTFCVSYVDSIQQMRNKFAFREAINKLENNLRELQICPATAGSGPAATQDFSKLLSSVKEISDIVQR
T3 sequence (P36894 24-532): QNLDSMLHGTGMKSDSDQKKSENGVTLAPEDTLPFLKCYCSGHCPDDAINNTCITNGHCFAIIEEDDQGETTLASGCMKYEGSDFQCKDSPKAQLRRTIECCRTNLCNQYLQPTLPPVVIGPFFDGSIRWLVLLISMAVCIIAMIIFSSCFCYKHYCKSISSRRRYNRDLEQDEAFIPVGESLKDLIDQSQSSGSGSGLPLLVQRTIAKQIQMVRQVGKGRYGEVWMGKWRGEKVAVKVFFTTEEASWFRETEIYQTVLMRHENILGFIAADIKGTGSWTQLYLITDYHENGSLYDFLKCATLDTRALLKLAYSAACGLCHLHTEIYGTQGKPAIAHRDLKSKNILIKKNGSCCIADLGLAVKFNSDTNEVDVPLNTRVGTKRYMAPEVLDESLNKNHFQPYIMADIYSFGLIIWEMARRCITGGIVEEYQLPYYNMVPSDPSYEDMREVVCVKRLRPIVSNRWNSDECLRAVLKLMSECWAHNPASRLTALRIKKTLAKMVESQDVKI
T2 sequence (Q86UX6 whole entry): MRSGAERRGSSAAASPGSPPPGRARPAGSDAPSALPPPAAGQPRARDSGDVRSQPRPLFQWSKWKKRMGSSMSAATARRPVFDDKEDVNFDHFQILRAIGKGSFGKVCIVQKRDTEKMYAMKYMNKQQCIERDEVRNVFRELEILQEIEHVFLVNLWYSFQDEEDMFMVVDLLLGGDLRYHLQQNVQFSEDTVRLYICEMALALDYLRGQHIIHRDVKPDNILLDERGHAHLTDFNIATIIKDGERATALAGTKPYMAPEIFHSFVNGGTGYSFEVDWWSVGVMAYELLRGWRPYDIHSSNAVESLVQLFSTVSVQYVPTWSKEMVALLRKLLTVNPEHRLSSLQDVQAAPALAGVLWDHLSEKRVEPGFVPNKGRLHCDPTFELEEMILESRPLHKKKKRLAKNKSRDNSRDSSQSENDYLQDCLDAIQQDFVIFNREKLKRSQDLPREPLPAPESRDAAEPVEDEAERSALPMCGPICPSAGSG

`COc1cc2ncnc(Nc3cccc(Cl)c3F)c2cc1OCCON1CCN(C)CC1` [Compound 9, N-(3-Chloro-2-fluorophenyl)-7-methoxy-6-(2-((4-methylpiperazin-1-yl)oxy)ethoxy)quinazolin-4-amine] showed a remaining binding at 1 µM (WNK2) of 94%, a remaining binding at 1 µM (YANK3) of 86% and a remaining binding at 1 µM (BMPR1A) of 90%. For the same molecule, the remaining binding at 1 µM [1] was 48%, the IC50 [2] was over 10000 nM and the IC50 [3] was 83 nM. For the same molecule, the IC50 [4] was 1510 nM, the IC50 [5] was 986 ± 138 nM and the IC50 [6] was 1630 nM. The “Count (# of wells)” value (TA100; TA100+S9, 1.0E-04 M) was 0, the “Positive Significance (- to +++)” value (TA100; TA100+S9, 1.0E-04 M) was “-” and the “Count (# of wells)” value (TA100; TA100+S9, 1.0E-05 M) was 3. For the same molecule, the “Positive Significance (- to +++)” value (TA100; TA100+S9, 1.0E-05 M) was “-”, the “Count (# of wells)” value (TA100; TA100+S9, 5.0E-05 M) was 0 and the “Positive Significance (- to +++)” value (TA100; TA100+S9, 5.0E-05 M) was “-”. The “Count (# of wells)” value (TA100; TA100+S9, 5.0E-06 M) was 3, the “Positive Significance (- to +++)” value (TA100; TA100+S9, 5.0E-06 M) was “-” and the “Count (# of wells)” value (TA100; TA100-S9, 1.0E-04 M) was 0. For the same molecule, the “Positive Significance (- to +++)” value (TA100; TA100-S9, 1.0E-04 M) was “-”, the “Count (# of wells)” value (TA100; TA100-S9, 1.0E-05 M) was 4 and the “Positive Significance (- to +++)” value (TA100; TA100-S9, 1.0E-05 M) was “-”. For the same molecule, the “Count (# of wells)” value (TA100; TA100-S9, 5.0E-05 M) was 0, the “Positive Significance (- to +++)” value (TA100; TA100-S9, 5.0E-05 M) was “-” and the “Count (# of wells)” value (TA100; TA100-S9, 5.0E-06 M) was 1. For the same molecule, the “Positive Significance (- to +++)” value (TA100; TA100-S9, 5.0E-06 M) was “-”, the “Count (# of wells)” value (TA98; TA98+S9, 1.0E-04 M) was 0 and the “Positive Significance (- to +++)” value (TA98; TA98+S9, 1.0E-04 M) was “-”. For the same molecule, the “Count (# of wells)” value (TA98; TA98+S9, 1.0E-05 M) was 2, the “Positive Significance (- to +++)” value (TA98; TA98+S9, 1.0E-05 M) was “-” and the “Count (# of wells)” value (TA98; TA98+S9, 5.0E-05 M) was 1. The “Positive Significance (- to +++)” value (TA98; TA98+S9, 5.0E-05 M) was “-”, the “Count (# of wells)” value (TA98; TA98+S9, 5.0E-06 M) was 0 and the “Positive Significance (- to +++)” value (TA98; TA98+S9, 5.0E-06 M) was “-”. For the same molecule, the “Count (# of wells)” value (TA98; TA98-S9, 1.0E-04 M) was 0, the “Positive Significance (- to +++)” value (TA98; TA98-S9, 1.0E-04 M) was “-” and the “Count (# of wells)” value (TA98; TA98-S9, 1.0E-05 M) was 0. For the same molecule, the “Positive Significance (- to +++)” value (TA98; TA98-S9, 1.0E-05 M) was “-”, the “Count (# of wells)” value (TA98; TA98-S9, 5.0E-05 M) was 2 and the “Positive Significance (- to +++)” value (TA98; TA98-S9, 5.0E-05 M) was “-”. The “Count (# of wells)” value (TA98; TA98-S9, 5.0E-06 M) was 0, the “Positive Significance (- to +++)” value (TA98; TA98-S9, 5.0E-06 M) was “-” and the “Count (# of wells)” value (TA1537; TA1537+S9, 1.0E-04 M) was 1. The “Positive Significance (- to +++)” value (TA1537; TA1537+S9, 1.0E-04 M) was “-”, the “Count (# of wells)” value (TA1537; TA1537+S9, 1.0E-05 M) was 5 and the “Positive Significance (- to +++)” value (TA1537; TA1537+S9, 1.0E-05 M) was “-”. For the same molecule, the “Count (# of wells)” value (TA1537; TA1537+S9, 5.0E-05 M) was 4, the “Positive Significance (- to +++)” value (TA1537; TA1537+S9, 5.0E-05 M) was “-” and the “Count (# of wells)” value (TA1537; TA1537+S9, 5.0E-06 M) was 3. For the same molecule, the “Positive Significance (- to +++)” value (TA1537; TA1537+S9, 5.0E-06 M) was “-”, the “Count (# of wells)” value (TA1537; TA1537-S9, 1.0E-04 M) was 0 and the “Positive Significance (- to +++)” value (TA1537; TA1537-S9, 1.0E-04 M) was “-”. For the same molecule, the “Count (# of wells)” value (TA1537; TA1537-S9, 1.0E-05 M) was 0, the “Positive Significance (- to +++)” value (TA1537; TA1537-S9, 1.0E-05 M) was “-” and the “Count (# of wells)” value (TA1537; TA1537-S9, 5.0E-05 M) was 0. For the same molecule, the “Positive Significance (- to +++)” value (TA1537; TA1537-S9, 5.0E-05 M) was “-”, the “Count (# of wells)” value (TA1537; TA1537-S9, 5.0E-06 M) was 1 and the “Positive Significance (- to +++)” value (TA1537; TA1537-S9, 5.0E-06 M) was “-”.
